The values below come from BindingDB's records for PubMed 32883635 (National Institute of Pharmaceutical Education and Research …, 2020).

Each structure is given as a SMILES string.

The target of one assay is T1, Enoyl-[acyl-carrier-protein] reductase [NADPH] FabI (Staphylococcus aureus (strain MRSA252), UniProt Q6GI75).
T1 sequence (Q6GI75 whole entry): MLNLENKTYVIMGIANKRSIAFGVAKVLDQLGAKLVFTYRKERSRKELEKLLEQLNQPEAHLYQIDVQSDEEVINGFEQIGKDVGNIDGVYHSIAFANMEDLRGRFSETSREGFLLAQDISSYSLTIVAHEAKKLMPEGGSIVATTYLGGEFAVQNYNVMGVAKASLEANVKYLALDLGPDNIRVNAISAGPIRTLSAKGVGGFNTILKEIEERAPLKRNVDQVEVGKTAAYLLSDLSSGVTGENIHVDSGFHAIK
The experiment in a line: Inhibition of Staphylococcus aureus FabI assessed as inhibition of bacterial growth by measuring the NADH consumption rate at 20 mins.
Turning to `NS(=O)(=O)C1C=CC(NC(=O)CCCN2CCOCC2)C=C1` (stereo unspecified), the IC50 (usually the midpoint of a concentration-inhibition curve) was found to be 0.31 nM.

As to `NS(=O)(=O)c1ccc(/N=C/C2=C(Cl)CCC=C2)cc1`, the IC50 was determined as 0.35 nM.

As for `COc1cc(/C=N/c2ccc(S(N)(=O)=O)cc2)ccc1C(C)=O`, the IC50 turned out to be 0.33 nM.

Target in another assay: not listed separately
Put plainly: Inhibition of wild type Escherichia coli FabI assessed as inhibition of bacterial growth.
For `Oc1ccccc1Oc1ccccc1` [2-phenoxylphenol], the Ki – broadly, the equilibrium dissociation constant of an inhibitor or competing ligand from its target – was 0.5 nM. The same measure, in the same setting: with `Cc1ccc(Oc2ccccc2)c(O)c1` [PT53] the figure was 7 nM. Turning to `Oc1cc(F)ccc1Oc1ccccc1` [PT55], the Ki worked out at 0.7 nM.
